Test results reported in paper PMC3494675, “Structure-Function Analysis of the Glioma Targeting NFL-TBS.40-63 Peptide Corresponding to the Tubulin-Binding Site on the Light Neurofilament Subunit” (PLoS ONE, 2012).
Peptide text beside a SMILES is read from it. * marks the point of attachment. Biotin = O=C1N[C@H]2[C@H](CS[C@H]2CCCCC(=O)*)N1

How the values were obtained:
[1] = tested on: T98G human glioblastoma cells; test: Peptide incorporation into T98G cells (immunocytochemistry, cell counting); assay type: cell-based; conditions: 6 hours; for Peptide incorporation (% of cells): T98G cells, 10 µM biotinylated peptide, Alexa-labeled avidin/streptavidin fluorescence microscopy, minimum 200 cells per experiment, mean ± S.E.M., triplicated
Description: (§1) Cells containing the biotinylated peptide were detected using Alexa-labeled avidin (green fluorescence) and those displaying a normal or a destroyed MT network were detected with an anti-tubulin antibody (red fluorescence) ( Figure 1A-B ). Then, we counted a minimum of 200 cells per slide containing or not the peptide, and with a normal or destroyed microtubule network ( Figure 1C ). As illustrated on Figure 1A glioblastoma cells contain a rich MT network. […] Cells were plated on cover slips and cultured in media containing biotinylated peptides (10 μM) for 6 hours. […] The cells were then incubated during 10 min in a 0.5% triton X-100 permeabilization solution, and washed 3 times in PBS. Next, they were incubated in a blocking solution (PBS 5% BSA) for 15 min, then incubated with mouse anti-ß-tubulin antibody (Sigma) 1/200 overnight. Tubulin and biotinylated peptides were localized using respectively Alexa 568 nm anti-mouse antibody and streptavidin Alexa 488 nm (Molecular Probes) 1/200 for 1 hour, followed by washing in PBS. […] Sigma) for 5 min, washed twice with PBS, then cover slips were mounted with an antifading solution. Observations were performed with an Olympus confocal microscope (BX50) using Fluoview.3.1. Software or a Leica DMI6000 inverted microscope and analyzed with Metamorph 7.1.7.0. software. We counted cells containing the peptide and cells displaying a destroyed MT network. Experiments were repeated at least three times, and a minimum of 200 cells was scored during each experiment.

[2] = tested on: T98G human glioblastoma cells; test: Disintegration of the microtubule network in T98G cells (anti-tubulin immunostaining, cell counting); assay type: cell-based; conditions: 6 hours; for Disintegration of MT (% of cells): T98G cells, 10 µM biotinylated peptide, anti-tubulin immunostaining, minimum 200 cells per experiment, mean ± S.E.M., triplicated
Description: as §1

SMILES | Peptide incorporation (% of cells) [1] | Disintegration of MT (% of cells) [2] | Cell penetration / internalization in T98G cells (in words) ([1]; 10 µM, immunocytochemistry, compared to original NFL-TBS.40-63) | Effect on MT network of T98G / glioma cells (in words) ([2]; 10 µM, immunocytochemistry)
CC(C)C[C@H](NC(=O)[C@H](CO)NC(=O)[C@H](CO)NC(=O)[C@H](CO)NC(=O)[C@@H](NC(=O)[C@@H]1CCCN1C(=O)[C@H](C)NC(=O)[C@H](CO)NC(=O)[C@H](Cc1ccc(O)cc1)NC(=O)[C@H](CO)NC(=O)[C@H](CO)NC(=O)[C@H](Cc1ccc(O)cc1)NC(=O)CCCC[C@@H]1SC[C@@H]2NC(=O)N[C@@H]21)C(C)C)C(=O)N[C@@H](CO)C(=O)N[C@H](C(=O)N[C@@H](CCCNC(=N)N)C(=O)N[C@@H](CCCNC(=N)N)C(=O)N[C@@H](CO)C(=O)N[C@@H](Cc1ccc(O)cc1)C(=O)N[C@@H](C)C(=O)N[C@@H](CO)C(=O)N[C@@H](CO)C(=O)N[C@@H](CO)C(=O)NCC(=O)N[C@@H](CO)C(N)=O)C(C)C [Ser19Ala] (Biotin-YSSYSAPVSSSLSVRRSYASSSGS-NH2) | 5.2±0.7 % of cells | 14.5±2.7 % of cells | – | –
CC(C)C[C@H](NC(=O)[C@H](CO)NC(=O)[C@H](CO)NC(=O)[C@H](CO)NC(=O)[C@@H](NC(=O)[C@@H]1CCCN1C(=O)[C@H](C)NC(=O)[C@H](CO)NC(=O)[C@H](Cc1ccc(O)cc1)NC(=O)[C@H](CO)NC(=O)[C@H](CO)NC(=O)[C@H](Cc1ccc(O)cc1)NC(=O)CCCC[C@@H]1SC[C@@H]2NC(=O)N[C@@H]21)C(C)C)C(=O)N[C@@H](CO)C(=O)N[C@H](C(=O)N[C@@H](CCCNC(=N)N)C(=O)N[C@@H](CCCNC(=N)N)C(=O)N[C@@H](CO)C(=O)N[C@@H](Cc1ccc(O)cc1)C(=O)N[C@@H](CC(=O)O)C(=O)N[C@@H](CO)C(=O)N[C@@H](CO)C(=O)N[C@@H](CO)C(=O)NCC(=O)N[C@@H](CO)C(N)=O)C(C)C [Ser19Asp] (Biotin-YSSYSAPVSSSLSVRRSYDSSSGS-NH2) | 25.2±4.8 % of cells | 19.2±1.5 % of cells | decreased internalization | not altered
CC(C)C[C@H](NC(=O)[C@H](CO)NC(=O)[C@H](CO)NC(=O)[C@H](CO)NC(=O)[C@@H](NC(=O)[C@@H]1CCCN1C(=O)[C@H](C)NC(=O)[C@H](CO)NC(=O)[C@H](Cc1ccc(O)cc1)NC(=O)[C@H](CO)NC(=O)[C@H](CO)NC(=O)[C@H](Cc1ccc(O)cc1)NC(=O)CCCC[C@@H]1SC[C@@H]2NC(=O)N[C@@H]21)C(C)C)C(=O)N[C@@H](CO)C(=O)N[C@H](C(=O)N[C@@H](CCCNC(=N)N)C(=O)N[C@@H](CCCNC(=N)N)C(=O)N[C@@H](CO)C(=O)N[C@@H](Cc1ccc(O)cc1)C(=O)N[C@@H](CO)C(=O)N[C@@H](C)C(=O)N[C@@H](CO)C(=O)N[C@@H](CO)C(=O)NCC(=O)N[C@@H](CO)C(N)=O)C(C)C [Ser20Ala] (Biotin-YSSYSAPVSSSLSVRRSYSASSGS-NH2) | 6.4±1.2 % of cells | 16.4±6.4 % of cells | – | –
CC(C)C[C@H](NC(=O)[C@H](CO)NC(=O)[C@H](CO)NC(=O)[C@H](CO)NC(=O)[C@@H](NC(=O)[C@@H]1CCCN1C(=O)[C@H](C)NC(=O)[C@H](CO)NC(=O)[C@H](Cc1ccc(O)cc1)NC(=O)[C@H](CO)NC(=O)[C@H](CO)NC(=O)[C@H](Cc1ccc(O)cc1)NC(=O)CCCC[C@@H]1SC[C@@H]2NC(=O)N[C@@H]21)C(C)C)C(=O)N[C@@H](CO)C(=O)N[C@H](C(=O)N[C@@H](CCCNC(=N)N)C(=O)N[C@@H](CCCNC(=N)N)C(=O)N[C@@H](CO)C(=O)N[C@@H](Cc1ccc(O)cc1)C(=O)N[C@@H](CO)C(=O)N[C@@H](CO)C(=O)N[C@@H](C)C(=O)N[C@@H](CO)C(=O)NCC(=O)N[C@@H](CO)C(N)=O)C(C)C [Ser21Ala] (Biotin-YSSYSAPVSSSLSVRRSYSSASGS-NH2) | 55.4±5.9 % of cells | 31.6±5.1 % of cells | – | –
CC(C)C[C@H](NC(=O)[C@H](CO)NC(=O)[C@H](CO)NC(=O)[C@H](CO)NC(=O)[C@@H](NC(=O)[C@@H]1CCCN1C(=O)[C@H](C)NC(=O)[C@H](CO)NC(=O)[C@H](Cc1ccc(O)cc1)NC(=O)[C@H](CO)NC(=O)[C@H](CO)NC(=O)[C@H](Cc1ccc(O)cc1)NC(=O)CCCC[C@@H]1SC[C@@H]2NC(=O)N[C@@H]21)C(C)C)C(=O)N[C@@H](CO)C(=O)N[C@H](C(=O)N[C@@H](CCCNC(=N)N)C(=O)N[C@@H](CCCNC(=N)N)C(=O)N[C@@H](CO)C(=O)N[C@@H](Cc1ccc(O)cc1)C(=O)N[C@@H](CO)C(=O)N[C@@H](CO)C(=O)N[C@@H](CO)C(=O)N[C@@H](CO)C(=O)NCC(=O)N[C@@H](C)C(N)=O)C(C)C [Ser24Ala] (Biotin-YSSYSAPVSSSLSVRRSYSSSSGA-NH2) | 44.3±6.7 % of cells | 29.4±0.6 % of cells | – | –
CC(C)C[C@H](NC(=O)[C@H](CO)NC(=O)[C@H](CO)NC(=O)[C@H](CO)NC(=O)[C@@H](NC(=O)[C@@H]1CCCN1C(=O)[C@H](C)NC(=O)[C@H](CO)NC(=O)[C@H](Cc1ccc(O)cc1)NC(=O)[C@H](CO)NC(=O)[C@H](CO)NC(=O)[C@H](C)NC(=O)CCCC[C@@H]1SC[C@@H]2NC(=O)N[C@@H]21)C(C)C)C(=O)N[C@@H](CO)C(=O)N[C@H](C(=O)N[C@@H](CCCNC(=N)N)C(=O)N[C@@H](CCCNC(=N)N)C(=O)N[C@@H](CO)C(=O)N[C@@H](Cc1ccc(O)cc1)C(=O)N[C@@H](CO)C(=O)N[C@@H](CO)C(=O)N[C@@H](CO)C(=O)N[C@@H](CO)C(=O)NCC(=O)N[C@@H](CO)C(N)=O)C(C)C [Tyr1Ala] (Biotin-ASSYSAPVSSSLSVRRSYSSSSGS-NH2) | 0 % of cells | 24.1±4.6 % of cells | – | –
CC(C)C[C@H](NC(=O)[C@H](CO)NC(=O)[C@H](CO)NC(=O)[C@H](CO)NC(=O)[C@@H](NC(=O)[C@@H]1CCCN1C(=O)[C@H](C)NC(=O)[C@H](CO)NC(=O)[C@H](Cc1ccc(O)cc1)NC(=O)[C@H](CO)NC(=O)[C@H](CO)NC(=O)[C@H](Cc1ccccc1)NC(=O)CCCC[C@@H]1SC[C@@H]2NC(=O)N[C@@H]21)C(C)C)C(=O)N[C@@H](CO)C(=O)N[C@H](C(=O)N[C@@H](CCCNC(=N)N)C(=O)N[C@@H](CCCNC(=N)N)C(=O)N[C@@H](CO)C(=O)N[C@@H](Cc1ccc(O)cc1)C(=O)N[C@@H](CO)C(=O)N[C@@H](CO)C(=O)N[C@@H](CO)C(=O)N[C@@H](CO)C(=O)NCC(=O)N[C@@H](CO)C(N)=O)C(C)C [Tyr1Phe] (Biotin-FSSYSAPVSSSLSVRRSYSSSSGS-NH2) | 56.3±2.8 % of cells | 41.2±4.0 % of cells | – | –
CC(C)C[C@H](NC(=O)[C@H](CO)NC(=O)[C@H](CO)NC(=O)[C@H](CO)NC(=O)[C@@H](NC(=O)[C@@H]1CCCN1C(=O)[C@H](C)NC(=O)[C@H](CO)NC(=O)[C@H](C)NC(=O)[C@H](CO)NC(=O)[C@H](CO)NC(=O)[C@H](Cc1ccc(O)cc1)NC(=O)CCCC[C@@H]1SC[C@@H]2NC(=O)N[C@@H]21)C(C)C)C(=O)N[C@@H](CO)C(=O)N[C@H](C(=O)N[C@@H](CCCNC(=N)N)C(=O)N[C@@H](CCCNC(=N)N)C(=O)N[C@@H](CO)C(=O)N[C@@H](Cc1ccc(O)cc1)C(=O)N[C@@H](CO)C(=O)N[C@@H](CO)C(=O)N[C@@H](CO)C(=O)N[C@@H](CO)C(=O)NCC(=O)N[C@@H](CO)C(N)=O)C(C)C [Tyr4Ala] (Biotin-YSSASAPVSSSLSVRRSYSSSSGS-NH2) | 5.3±2.4 % of cells | 24.4±4.6 % of cells | – | –
CC(C)C[C@H](NC(=O)[C@H](CO)NC(=O)[C@H](CO)NC(=O)[C@H](CO)NC(=O)[C@@H](NC(=O)[C@@H]1CCCN1C(=O)[C@H](C)NC(=O)[C@H](CO)NC(=O)[C@H](Cc1ccc(O)cc1)NC(=O)[C@H](CO)NC(=O)[C@H](CO)NC(=O)[C@H](Cc1ccc(O)cc1)NC(=O)CCCC[C@@H]1SC[C@@H]2NC(=O)N[C@@H]21)C(C)C)C(=O)N[C@@H](CO)C(=O)N[C@H](C(=O)N[C@@H](CCCNC(=N)N)C(=O)N[C@@H](CCCNC(=N)N)C(=O)N[C@@H](CO)C(=O)N[C@@H](C)C(=O)N[C@@H](CO)C(=O)N[C@@H](CO)C(=O)N[C@@H](CO)C(=O)N[C@@H](CO)C(=O)NCC(=O)N[C@@H](CO)C(N)=O)C(C)C [Tyr18Ala] (Biotin-YSSYSAPVSSSLSVRRSASSSSGS-NH2) | 7.9±0.9 % of cells | 16.0±2.8 % of cells | – | –
CC(C)C[C@H](NC(=O)[C@H](CO)NC(=O)[C@H](CO)NC(=O)[C@H](CO)NC(=O)[C@H](C)NC(=O)[C@@H]1CCCN1C(=O)[C@H](C)NC(=O)[C@H](CO)NC(=O)[C@H](Cc1ccc(O)cc1)NC(=O)[C@H](CO)NC(=O)[C@H](CO)NC(=O)[C@H](Cc1ccc(O)cc1)NC(=O)CCCC[C@@H]1SC[C@@H]2NC(=O)N[C@@H]21)C(=O)N[C@@H](CO)C(=O)N[C@H](C(=O)N[C@@H](CCCNC(=N)N)C(=O)N[C@@H](CCCNC(=N)N)C(=O)N[C@@H](CO)C(=O)N[C@@H](Cc1ccc(O)cc1)C(=O)N[C@@H](CO)C(=O)N[C@@H](CO)C(=O)N[C@@H](CO)C(=O)N[C@@H](CO)C(=O)NCC(=O)N[C@@H](CO)C(N)=O)C(C)C [Val8Ala] (Biotin-YSSYSAPASSSLSVRRSYSSSSGS-NH2) | 9.9±3.4 % of cells | 23.6±2.1 % of cells | – | –
